Experiments:
[1] = tested on: 22AG (DNA, G4) AGGGTTAGGGTTAGGGTTAGGG; test: fluorescence and UV/Vis titration; conditions: K+ 100 mM; 10 mM Tris, pH 7.4, 25 °C; lower optical response
[2] = tested on: sG4 (DNA, G4) GGGTGGGTAGGGTGGG; test: UV/Vis and fluorescence titration, averaged; conditions: K+ 100 mM; 10 mM Tris, pH 7.4, 25 °C
[3] = tested on: VAV-1 (DNA, G4) GGGCAGGGAGGGAACTGGG; test: UV/Vis and fluorescence titration, averaged; conditions: K+ 100 mM; 10 mM Tris, pH 7.4, 25 °C
[4] = tested on: c-myc (DNA, G4) TGAGGGTGGGTAGGGTGGGTAA; test: UV/Vis and fluorescence titration, averaged; conditions: K+ 100 mM; 10 mM Tris, pH 7.4, 25 °C
[5] = tested on: 25Ceb (DNA, G4) AGGGTGGGTGTAAGTGTGGGTGGGT; test: UV/Vis and fluorescence titration, averaged; conditions: K+ 100 mM; 10 mM Tris, pH 7.4, 25 °C
[6] = tested on: Kras 22 (DNA, G4) AGGGCGGTGTGGGAATAGGGAA; test: UV/Vis and fluorescence titration, averaged; conditions: K+ 100 mM; 10 mM Tris, pH 7.4, 25 °C; site 1 of 2; K12 1.7 × 10^6; 1:2 fit of lower credibility
[7] = tested on: Kras 32 (DNA, G4) AGGGCGGTGTGGGAAGAGGGAAGAGGGGGAGG; test: UV/Vis and fluorescence titration, averaged; conditions: K+ 100 mM; 10 mM Tris, pH 7.4, 25 °C; site 1 of 2; K12 4.1 × 10^5; 1:2 fit of lower credibility

COCCOCCOCCOc1cc(CN2C(=CC3=C([O-])C(=Cc4sc5ccccc5[n+]4Cc4cc(OCCOCCOCCOC)c(OCCOCCOCCOC)c(OCCOCCOCCOC)c4)C3=C(C#N)C#N)Sc3ccccc32)cc(OCCOCCOCCOC)c1OCCOCCOCCOC
binding [1]: weak
K11 [2]: 8.1e+06 M⁻¹
K11 [3]: 1.2e+07 M⁻¹
K11 [4]: 1e+07 M⁻¹
K11 [5]: 900000 M⁻¹
K11 [6]: 1.5e+07 M⁻¹
K11 [7]: 5.9e+06 M⁻¹
